Test results reported in PubChem BioAssay (NCI).
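Five concentrations, 48 hours, 96-well plates. TGI is the concentration that stops growth completely.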

Experiments:
Assay in all cases: inhibition of tumour cell growth, NCI panel, 48 h
786-0 renal = test system: 786-0 renal
A549 NSCLC = test system: A549 NSCLC
ACHN renal = test system: ACHN renal
CCRF-CEM leukemia = test system: CCRF-CEM leukemia
COLO 205 colon = test system: COLO 205 colon
DLD-1 colon = test system: DLD-1 colon
DMS 114 small cell lung = test system: DMS 114 small cell lung
EKVX NSCLC = test system: EKVX NSCLC
HCC-2998 colon = test system: HCC-2998 colon
HCT-116 colon = test system: HCT-116 colon
HCT-15 colon = test system: HCT-15 colon
HL-60(TB) leukemia = test system: HL-60(TB) leukemia
HOP-62 NSCLC = test system: HOP-62 NSCLC
HT29 colon = test system: HT29 colon
IGROV1 ovarian = test system: IGROV1 ovarian
K-562 leukemia = test system: K-562 leukemia
KM12 colon = test system: KM12 colon
KM20L2 colon = test system: KM20L2 colon
LOX IMVI melanoma = test system: LOX IMVI melanoma
LXFL 529 NSCLC = test system: LXFL 529 NSCLC
M14 melanoma = test system: M14 melanoma
M19-MEL melanoma = test system: M19-MEL melanoma
NCI-H226 lung = test system: NCI-H226 lung
NCI-H23 lung = test system: NCI-H23 lung
NCI-H460 lung = test system: NCI-H460 lung
NCI-H522 lung = test system: NCI-H522 lung
OVCAR-3 ovarian = test system: OVCAR-3 ovarian
OVCAR-4 ovarian = test system: OVCAR-4 ovarian
OVCAR-5 ovarian = test system: OVCAR-5 ovarian
OVCAR-8 ovarian = test system: OVCAR-8 ovarian
RXF 393 renal = test system: RXF 393 renal
SF-268 CNS = test system: SF-268 CNS
SF-295 CNS = test system: SF-295 CNS
SF-539 CNS = test system: SF-539 CNS
SK-MEL-2 melanoma = test system: SK-MEL-2 melanoma
SK-MEL-28 melanoma = test system: SK-MEL-28 melanoma
SK-MEL-5 melanoma = test system: SK-MEL-5 melanoma
SN12C renal = test system: SN12C renal
SNB-19 CNS = test system: SNB-19 CNS
SNB-75 CNS = test system: SNB-75 CNS
SNB-78 CNS = test system: SNB-78 CNS
SR leukemia = test system: SR leukemia
SW-620 colon = test system: SW-620 colon
TK-10 renal = test system: TK-10 renal
U251 CNS = test system: U251 CNS
UACC-62 melanoma = test system: UACC-62 melanoma
UO-31 renal = test system: UO-31 renal
XF 498 CNS = test system: XF 498 CNS
A498 renal = test system: A498 renal
CAKI-1 renal = test system: CAKI-1 renal
DMS 273 small cell lung = test system: DMS 273 small cell lung
HOP-18 NSCLC = test system: HOP-18 NSCLC
HOP-92 NSCLC = test system: HOP-92 NSCLC
MALME-3M melanoma = test system: MALME-3M melanoma
MOLT-4 leukemia = test system: MOLT-4 leukemia
RPMI-8226 leukemia = test system: RPMI-8226 leukemia
SK-OV-3 ovarian = test system: SK-OV-3 ovarian
UACC-257 melanoma = test system: UACC-257 melanoma

Cc1cc(C)nc(NS(=O)(=O)c2ccc(Nc3c4ccccc4nc4c(C(=O)NCCN(C)C)ccc(Cl)c34)cc2)n1 gave a TGI (786-0 renal) of 14.7 µM, a TGI (A549 NSCLC) of 4.19 µM and a TGI (ACHN renal) of 8.97 µM. The TGI (CCRF-CEM leukemia) was 15.7 µM, the TGI (COLO 205 colon) was 2.64 µM and the TGI (DLD-1 colon) was 13.4 µM. The TGI (DMS 114 small cell lung) was 3.94 µM, the TGI (EKVX NSCLC) was 15.5 µM and the TGI (HCC-2998 colon) was 26.7 µM. The TGI (HCT-116 colon) was 7.23 µM, the TGI (HCT-15 colon) was 10.1 µM and the TGI (HL-60(TB) leukemia) was 7.6 µM. The TGI (HOP-62 NSCLC) was 10.2 µM, the TGI (HT29 colon) was 4.8 µM and the TGI (IGROV1 ovarian) was 11.7 µM. The TGI (K-562 leukemia) was 11.7 µM, the TGI (KM12 colon) was 12.5 µM and the TGI (KM20L2 colon) was 12 µM. For the same compound, the TGI (LOX IMVI melanoma) was 2.25 µM, the TGI (LXFL 529 NSCLC) was 4.06 µM and the TGI (M14 melanoma) was 10.6 µM. It also gave a TGI (M19-MEL melanoma) of 7.84 µM, a TGI (NCI-H226 lung) of 2.77 µM and a TGI (NCI-H23 lung) of 11.7 µM. It also gave a TGI (NCI-H460 lung) of 2.7 µM, a TGI (NCI-H522 lung) of 3.32 µM and a TGI (OVCAR-3 ovarian) of 23 µM. The TGI (OVCAR-4 ovarian) was 4.8 µM, the TGI (OVCAR-5 ovarian) was 14.9 µM and the TGI (OVCAR-8 ovarian) was 2.69 µM. For the same compound, the TGI (RXF 393 renal) was 6.31 µM, the TGI (SF-268 CNS) was 8.11 µM and the TGI (SF-295 CNS) was 5.91 µM. The TGI (SF-539 CNS) was 11.5 µM, the TGI (SK-MEL-2 melanoma) was 12.1 µM and the TGI (SK-MEL-28 melanoma) was 17.9 µM. The TGI (SK-MEL-5 melanoma) was 15.2 µM, the TGI (SN12C renal) was 8.2 µM and the TGI (SNB-19 CNS) was 6.08 µM. For the same compound, the TGI (SNB-75 CNS) was 11 µM, the TGI (SNB-78 CNS) was 35.5 µM and the TGI (SR leukemia) was 5.46 µM. The TGI (SW-620 colon) was 9.04 µM, the TGI (TK-10 renal) was 20.3 µM and the TGI (U251 CNS) was 10.4 µM. For the same compound, the TGI (UACC-62 melanoma) was 3.59 µM, the TGI (UO-31 renal) was 4.62 µM and the TGI (XF 498 CNS) was 17.3 µM.

OC1CN(OC/C=C/c2ccccc2)CC(O)C1O (centres undefined) was tested, and the TGI (786-0 renal) was 77 µM, the TGI (A498 renal) was > 100 µM and the TGI (A549 NSCLC) was > 100 µM. For the same compound, the TGI (ACHN renal) was > 100 µM, the TGI (CAKI-1 renal) was > 100 µM and the TGI (CCRF-CEM leukemia) was > 100 µM. The TGI (COLO 205 colon) was > 100 µM, the TGI (DLD-1 colon) was > 100 µM and the TGI (DMS 114 small cell lung) was > 100 µM. The TGI (DMS 273 small cell lung) was > 100 µM, the TGI (EKVX NSCLC) was > 100 µM and the TGI (HCC-2998 colon) was > 100 µM. For the same compound, the TGI (HCT-116 colon) was > 100 µM, the TGI (HCT-15 colon) was > 100 µM and the TGI (HL-60(TB) leukemia) was > 100 µM. The TGI (HOP-18 NSCLC) was > 100 µM, the TGI (HOP-62 NSCLC) was > 100 µM and the TGI (HOP-92 NSCLC) was > 100 µM. The TGI (HT29 colon) was > 100 µM, the TGI (IGROV1 ovarian) was > 100 µM and the TGI (K-562 leukemia) was > 100 µM. For the same compound, the TGI (KM12 colon) was > 100 µM, the TGI (KM20L2 colon) was > 100 µM and the TGI (LOX IMVI melanoma) was > 100 µM. The TGI (LXFL 529 NSCLC) was > 100 µM, the TGI (M14 melanoma) was > 100 µM and the TGI (M19-MEL melanoma) was > 100 µM. For the same compound, the TGI (MALME-3M melanoma) was > 100 µM, the TGI (MOLT-4 leukemia) was > 100 µM and the TGI (NCI-H226 lung) was > 100 µM. The TGI (NCI-H23 lung) was > 100 µM, the TGI (NCI-H460 lung) was > 100 µM and the TGI (OVCAR-3 ovarian) was > 100 µM. For the same compound, the TGI (OVCAR-4 ovarian) was > 100 µM, the TGI (OVCAR-5 ovarian) was > 100 µM and the TGI (OVCAR-8 ovarian) was > 100 µM. For the same compound, the TGI (RPMI-8226 leukemia) was > 100 µM, the TGI (RXF 393 renal) was > 100 µM and the TGI (SF-268 CNS) was > 100 µM. The TGI (SF-295 CNS) was > 100 µM, the TGI (SF-539 CNS) was > 100 µM and the TGI (SK-MEL-2 melanoma) was > 100 µM. For the same compound, the TGI (SK-MEL-28 melanoma) was > 100 µM, the TGI (SK-MEL-5 melanoma) was > 100 µM and the TGI (SK-OV-3 ovarian) was > 100 µM. For the same compound, the TGI (SN12C renal) was > 100 µM, the TGI (SNB-19 CNS) was > 100 µM and the TGI (SNB-75 CNS) was > 100 µM. The TGI (SNB-78 CNS) was > 100 µM, the TGI (SW-620 colon) was > 100 µM and the TGI (TK-10 renal) was > 100 µM. For the same compound, the TGI (U251 CNS) was > 100 µM, the TGI (UACC-257 melanoma) was > 100 µM and the TGI (UACC-62 melanoma) was > 100 µM. The TGI (UO-31 renal) was > 100 µM and the TGI (XF 498 CNS) was > 100 µM.
